Patent publication US12281125B2, “Rapamycin derivatives” (NOVARTIS AG, priority 2018, dated 2025)

Legend:
FKBP52 = target: T1, FKBP52 (Homo sapiens, UniProt Q02790); test: SPR assay, binding affinity to FKBP52; details: equilibrium dissociation constant
T1 construct: made in house; host or cells: E. coli
T1 sequence (Q02790 1-459): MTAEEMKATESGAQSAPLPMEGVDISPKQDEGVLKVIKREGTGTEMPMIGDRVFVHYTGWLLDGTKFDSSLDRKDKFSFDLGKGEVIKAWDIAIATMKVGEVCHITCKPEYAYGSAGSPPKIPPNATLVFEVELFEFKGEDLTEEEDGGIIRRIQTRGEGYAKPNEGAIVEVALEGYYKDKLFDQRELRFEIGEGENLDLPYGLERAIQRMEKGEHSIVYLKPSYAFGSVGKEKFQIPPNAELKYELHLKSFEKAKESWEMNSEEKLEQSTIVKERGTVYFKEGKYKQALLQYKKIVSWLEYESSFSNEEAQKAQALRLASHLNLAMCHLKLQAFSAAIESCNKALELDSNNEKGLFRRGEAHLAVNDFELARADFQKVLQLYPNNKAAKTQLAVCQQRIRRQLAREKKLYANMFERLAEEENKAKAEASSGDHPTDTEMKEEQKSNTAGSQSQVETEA
Method: (§1) N-terminal avi-his6-tagged FKBP fusion proteins were expressed in E. coli and purified with nickel chromatography using standard procedures. Biotinylated his-avi-FKBPs were immobilized on a streptavidin chip using a Biacore 8K (GE Healthcare). To determine the kinetics-affinity of the rapalogs for FKBPs, rapalogs were diluted in DMSO to 50× working concentration. Next, 3.1 uLs of each rapalog solution was added to 150 uLs of buffer (50 mM Tris pH 7.5/150 mM NaCl/0.01% Tween 20/1 mM DTT) in a 384 deep well plate (greiner bio-one/78127) and mixed using a Biomek FX. The rapalog solution gradients (6 concentrations/2 fold dilutions, 3.1-100 nM or 31-1000 nM or 310-10000 nM) were then injected at 45 uL/min for 120 seconds: contact time and dissociation time was 1800 seconds in running buffer (50 mM Tris pH 7.5/150 mM NaCl/0.01% Tween 20/1 mM DTT/2% DMSO). The single-cycle kinetics data were fit to a 1:1 binding model to measure the association rate ka (1/Ms), the dissociation rate kd (1/s) and the affinity KD (M). […] 3.1 uLs of the 500 μM rapalog solutions were added to 150 uLs of the mTOR samples in a 384 deep well plate (greiner bio-one/78127) and mixed using a Biomek FX. The mTOR solution gradients were then injected at 45 uL/min for 120 seconds: contact time and dissociation time was 1800 seconds in running buffer (50 mM Tris pH 7.5/150 mM NaCl/0.01% Tween 20/1 mM DTT/2% DMSO). The single-cycle kinetics data was fit to a 1:1 binding model to measure the association rate ka (1/Ms), the dissociation rate kd (1/s) and the apparent affinity KD (M) for ternary complex formation.
The equilibrium dissociation constants (KD) to FKBP12, FKBP51, and FKBP52 are shown below in Table 6.

[1] = target: T2, FKBP12-rapalog-mTOR (amino acids 2019-2112) ternary complex (Homo sapiens, UniProt P42345+P62942); test: SPR ternary complex formation, rapalog bound to FKBP12 with mTOR; type: binding; details: rapalog bound to FKBP with mTOR, read-out: FKBP12 apparent affinity KD for ternary complex formation
T2 construct: his^6-mTOR (amino acids 2019-2112) was diluted in buffer; made in house; host or cells: E. coli
T2 sequence (P62942 whole entry, the tested form may be a part): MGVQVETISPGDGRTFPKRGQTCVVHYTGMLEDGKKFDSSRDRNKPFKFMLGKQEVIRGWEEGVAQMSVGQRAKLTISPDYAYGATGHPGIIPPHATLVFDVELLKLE
T2 sequence (P42345 2019-2112 limits assumed): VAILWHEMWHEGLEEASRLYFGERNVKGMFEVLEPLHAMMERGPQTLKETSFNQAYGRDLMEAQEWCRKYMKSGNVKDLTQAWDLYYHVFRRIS
Method: as §1, with “The single-cycle kinetics data was fit to a 1:1 binding model to measure the association rate ka (1/Ms), the dissociation rate kd (1/s) and the apparent affinity KD (M) for ternary complex formation.” left out

[2] = target: T3, FKBP13-rapalog-mTOR (amino acids 2019-2112) ternary complex (Homo sapiens, UniProt P26885+P42345); test: SPR ternary complex formation, rapalog bound to FKBP13 with mTOR; type: binding; details: rapalog bound to FKBP with mTOR, read-out: FKBP13 apparent affinity KD for ternary complex formation
T3 construct: his^6-mTOR (amino acids 2019-2112) was diluted in buffer; made in house; host or cells: E. coli
T3 sequence (P26885 22-142): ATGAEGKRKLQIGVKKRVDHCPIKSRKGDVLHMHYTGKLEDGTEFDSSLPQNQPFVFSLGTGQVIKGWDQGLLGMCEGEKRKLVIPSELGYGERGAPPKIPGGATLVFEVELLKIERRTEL
T3 sequence (P42345 2019-2112 limits assumed): as the sequence (P42345 2019-2112 limits assumed) above
Method: as §1, with “The single-cycle kinetics data was fit to a 1:1 binding model to measure the association rate ka (1/Ms), the dissociation rate kd (1/s) and the apparent affinity KD (M) for ternary complex formation.” left out

[3] = target: T4, FKBP25-rapalog-mTOR (amino acids 2019-2112) ternary complex (Homo sapiens, UniProt P42345+Q00688); test: SPR ternary complex formation, rapalog bound to FKBP25 with mTOR; type: binding; details: rapalog bound to FKBP with mTOR, read-out: FKBP25 apparent affinity KD for ternary complex formation
T4 construct: his^6-mTOR (amino acids 2019-2112) was diluted in buffer; made in house; host or cells: E. coli
T4 sequence (Q00688 whole entry, the tested form may be a part): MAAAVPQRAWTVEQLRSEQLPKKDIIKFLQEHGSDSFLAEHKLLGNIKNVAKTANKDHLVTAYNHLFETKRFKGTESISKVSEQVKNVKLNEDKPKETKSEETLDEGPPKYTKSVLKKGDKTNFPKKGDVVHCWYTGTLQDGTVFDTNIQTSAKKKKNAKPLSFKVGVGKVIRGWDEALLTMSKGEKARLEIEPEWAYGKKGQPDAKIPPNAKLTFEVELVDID
T4 sequence (P42345 2019-2112 limits assumed): as the sequence (P42345 2019-2112 limits assumed) above
Method: as §1, with “The single-cycle kinetics data was fit to a 1:1 binding model to measure the association rate ka (1/Ms), the dissociation rate kd (1/s) and the apparent affinity KD (M) for ternary complex formation.” left out

[4] = target: T5, FKBP51-rapalog-mTOR (amino acids 2019-2112) ternary complex (Homo sapiens, UniProt P42345+Q13451); test: SPR ternary complex formation, rapalog bound to FKBP51 with mTOR; type: binding; details: rapalog bound to FKBP with mTOR, read-out: FKBP51 apparent affinity KD for ternary complex formation
T5 construct: his^6-mTOR (amino acids 2019-2112) was diluted in buffer; made in house; host or cells: E. coli
T5 sequence (Q13451 whole entry, the tested form may be a part): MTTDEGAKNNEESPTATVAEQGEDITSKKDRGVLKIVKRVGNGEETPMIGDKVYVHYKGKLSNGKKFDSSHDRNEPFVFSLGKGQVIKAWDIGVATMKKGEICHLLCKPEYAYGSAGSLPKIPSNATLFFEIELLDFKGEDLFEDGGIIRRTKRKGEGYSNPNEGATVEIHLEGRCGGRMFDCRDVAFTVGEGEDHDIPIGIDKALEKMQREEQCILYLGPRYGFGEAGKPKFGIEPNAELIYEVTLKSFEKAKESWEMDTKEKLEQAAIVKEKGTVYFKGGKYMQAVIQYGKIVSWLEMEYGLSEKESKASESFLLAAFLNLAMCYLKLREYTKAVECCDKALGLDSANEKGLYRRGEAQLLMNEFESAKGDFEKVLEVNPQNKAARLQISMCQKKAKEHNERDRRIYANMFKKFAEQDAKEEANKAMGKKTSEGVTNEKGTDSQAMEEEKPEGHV
T5 sequence (P42345 2019-2112 limits assumed): as the sequence (P42345 2019-2112 limits assumed) above
Method: as §1, with “The single-cycle kinetics data was fit to a 1:1 binding model to measure the association rate ka (1/Ms), the dissociation rate kd (1/s) and the apparent affinity KD (M) for ternary complex formation.” left out

[5] = target: T6, FKBP52-rapalog-mTOR (amino acids 2019-2112) ternary complex (Homo sapiens, UniProt P42345+Q02790); test: SPR ternary complex formation, rapalog bound to FKBP52 with mTOR; type: binding; details: rapalog bound to FKBP with mTOR, read-out: FKBP52 apparent affinity KD for ternary complex formation
T6 construct: his^6-mTOR (amino acids 2019-2112) was diluted in buffer; made in house; host or cells: E. coli
T6 sequence (P42345 2019-2112 limits assumed, one chain of several): as the sequence (P42345 2019-2112 limits assumed) above
Method: as §1, with “The single-cycle kinetics data was fit to a 1:1 binding model to measure the association rate ka (1/Ms), the dissociation rate kd (1/s) and the apparent affinity KD (M) for ternary complex formation.” left out

[6] = tested on: mTORC1 activity, S6K1 (Thr389) in WT 293T cells; test: S6K1(Thr389) phosphorylation ELISA in wild-type 293T cells; type: cell-based; details: 2 hours
Method: (§2) WT, FKBP12 knock-out, FKBP12/12.6/13/52/51 knock-out or FKBP12/12.6/25/52/51 knock-out 293T cells were plated at a density of 30,000 cells per well in poly-D-Lysine coated 96-well plates (Corning, #354461) in Dulbecco's modified Eagle's medium (ThermoFisher, #11995-065) supplemented with 10% fetal bovine serum (ThermoFisher, #16140-071). Cells were incubated at 37° C., 5% CO2 for 48 hours until they reached ˜80% confluence. […] Media supplemented with blank Dimethyl sulfoxide (DMSO) was used as a control for both compounds. Phosphorylated amounts of S6K1 (Thr389) were detected by a sandwich ELISA kit (Cell signaling, #7063C) following the manufacture's protocol.
S6K1 is a downstream target of mTORC1 and phosphorylation of its rapalog-sensitive Thir389 site is used as a functional readout of mTORC1 activity (Lee, C. H., Inoki, K. and Guan, K. L. (2007). mTOR pathway as a target in tissue hypertrophy. Annu. Rev. Pharmacol. Toxicol. 47, 443-467).

[7] = tested on: mTORC1 activity, S6K1 (Thr389) in FKBP12/12.6/13/52/51 knock-out 293T cells; test: S6K1(Thr389) phosphorylation ELISA in FKBP12/12.6/13/52/51 knock-out 293T cells; type: cell-based
Description: A CRISPR/Cas9 system was used to deliver ribonucleoprotein complexes containing guide RNA (gRNA) sequences that target FKBP12
([…], location 35620248) into 293T cells, using the Amaxa® 4D-Nucleofector™ X Kit (Lonza, V4XC-2032). Cell clones were screened by immunoblotting with anti-FKBP-specific antibodies: FKBP12 (Novus, NB300-508), FKBP12.6 (Abnova, H00002281-M01), FKBP13 (R&D Systems, MAB4356), FKBP25 (R&D Systems, MAB3955), FKBP52 (Cell signaling Technology, #11826) and FKBP51 (Cell signaling Technology, #12210). […] Quintuple FKBP12/12.6/13/52/51 knock-out and FKBP12/12.6/25/52/51 knock-out cells were generated by sequentially knocking out five FKBP genes.
as §2

| Kd (FKBP52) [nM] | Kd [1] [nM] | Kd [2] [nM] | Kd [3] [nM] | Kd [4] [nM] | Kd [5] [nM] | Structure (SMILES) | inhibition of S6K1(Thr389) phosphorylation [6] [%] | inhibitory effect (potency) on S6K1 (Thr389), in words [7] | inhibition of S6K1 (Thr389) ([7]; at the highest tested concentration) [%] |
| --- | --- | --- | --- | --- | --- | --- | --- | --- | --- |
| 374 | 25 | 127 | 2 | 52 | 36 | CO[C@@H]1C[C@H](C[C@@H](C)[C@@H]2CC[C@H](C)/C=C(\C)[C@@H](O)[C@@H](OC)C(=O)[C@H](C)C[C@H](C)/C=C/C=C/C=C(\C)[C@@H](NS(C)(=O)=O)C[C@@H]3CC[C@@H](C)[C@@](O)(O3)C(=O)C(=O)N3CCCC[C@H]3C(=O)O2)CC[C@H]1O [Compound 2] | ~80 | efficacious in inhibiting S6K1 (Thr389) | ~90 |
| 1770 | 21 | 21 | 75 | 348 | 253 | CO[C@H]1C[C@@H]2CC[C@@H](C)[C@@](O)(O2)C(=O)C(=O)N2CCCC[C@H]2C(=O)O[C@H]([C@H](C)C[C@@H]2CC[C@@H](OCCO)[C@H](OC)C2)CC(=O)[C@H](C)/C=C(\C)[C@@H](O)[C@@H](OC)C(=O)[C@H](C)C[C@H](C)/C=C/C=C/C=C/1C [RAD001, everolimus, reference compound] | ~80 | lost almost all it potency |  |
